Experimental data taken from patent publication US20170172958A1, “Compounds for Use in Controlling Body Fat” (priority 2014, published 2017).

How the values were obtained:
[1] = system: liver cells; test: Liver histology, fat vacuolation score; assay type: in vivo, Male C3H mice; conditions: high fat diet, vs control
From the text: (§1) Male C3H mice were used. Two cohorts of twelve mice were weaned and fed on a commercial standard diet (SDS Rat and Mouse No.3 Breeding diet (RM3)), containing 3.36 g% fat, 22.45 g % protein and 71.21 g % carbohydrate, till maturity. At 11 weeks of age, the standard diet was replaced with a high fat diet (Research Diets Inc, USA, D12492, containing 35 g % fat, from lard and soybean oil). One cohort was provided with BSO (30 mmol/L) in their drinking water, concomitant with the start of high fat feeding, while the other cohort (control group) received no treatment. The mice were kept in accordance with UK Home Office welfare guidelines and project license restrictions under controlled light (12-h light and 12-h dark cycle; dark 7 p.m.-7 a.m.), temperature (21° C.±2° C.) and humidity (55%±10%) conditions. They had free access to water (10 ppm chlorine) and food throughout the experiment.

[2] = Findeisen et al, cited from earlier work
[3] = Plasma ALT, lipid components, glucose and glycerol; assay type: in vivo, Male C3H mice; conditions: vs control
From the text: as §1

[4] = Fasting plasma glucose, insulin and HOMA-IR, eight week BSO study; assay type: in vivo, Male C3H mice; conditions: after six weeks of BSO treatment, vs control
From the text: as §1
Thus, BSO-treated mice had lower glucose plasma levels, and lower insulin concentrations compared to the control. […] The HOMA IR index is a calculation of insulin resistance based on fasting glucose and insulin plasma levels, the calculation being known to those skilled in the art. Leptin plasma levels are also shown.
(§2) For the results presented in FIGS. 23 and 24, the experiments were carried out using the same conditions as described above (i.e. same mouse strain, mouse age, diet, and experimental design) except that the mice were treated for eight weeks with BSO, and the plasma for insulin, glucose, and leptin analysis was drawn after a 6-hour fast, after six weeks of BSO treatment.

[5] = Plasma amino acids and sulphur compounds (tCys, tHcy, glutathione, taurine); assay type: in vivo, Male C3H mice
From the text: Further, SCD activity increases with high tCys concentration in both rodents and humans. tCys refers to all natural forms of circulating cysteine, such as cysteine (thiol form), cystine (disulphide form), cysteine-mixed disulphides with other thiol compounds, and protein-bound cysteine not in peptide linkage. tCys in the plasma or serum can be measured using techniques described, for example, in WO2010/010383.
as §1

[6] = system: adipocytes; conditions: Vigilanza et al; cited from earlier work
[7] = Body mass of mice on a high fat diet, BSO in drinking water, four weeks; assay type: in vivo, Male C3H mice; conditions: BSO 30 mmol/L in drinking water, over four week treatment, control group showed significant weight gain
From the text: (§3) Male C3H mice were used. Two cohorts of twelve mice were weaned and fed on a commercial standard diet (SDS Rat and Mouse No.3 Breeding diet (RM3)), containing 3.36 g% fat, 22.45 g % protein and 71.21 g % carbohydrate, till maturity. At 11 weeks of age, the standard diet was replaced with a high fat diet (Research Diets Inc, USA, D12492, containing 35 g % fat, from lard and soybean oil). One cohort was provided with BSO (30 mmol/L) in their drinking water, concomitant with the start of high fat feeding, while the other cohort (control group) received no treatment. […]
(§4) Phenotyping tests were performed according to the European Phenotyping Resource for Standardised Screens (EMPReSS) from EUMORPHIA standardized protocols, available at http://empress.har.mrc.ac.uk. Body mass was measured daily on scales calibrated to 0.01 g. Metabolic rate was measured using indirect calorimetry (Oxymax; Columbus Instruments) to determine oxygen consumption and carbon dioxide production. Body composition (% fat tissue and % lean tissue) was assessed utilizing an EchoMRl-100 quantitative magnetic resonance whole body composition analyzer (Echo Medical Systems, Houston, Tex.).

[8] = system: stearoyl-coenzymeA desaturase (SCD); test: SCD activity indices (SCD16, SCD18) from plasma fatty acid ratios; assay type: in vivo, Male C3H mice; conditions: vs control
From the text: Compounds of Formula I inhibit SCD activity, which can be measured using one or more activity indices. These can be based on measurements of different fatty acid components of the blood plasma or serum.
Activity indices are based on the amount of monounsaturated fatty acids relative to their respective […] precursors. The most commonly used SCD activity indices are derived from the ratio of palmitoleic to palmitic acids (“SCD16 index”), and the ratio of oleic to stearic acid (“SCD18 index”). These ratios are lowered with increased inhibition of SCD. SCD indices can either be calculated from plasma/serum free fatty acids, or from the total fatty acid pool, which also includes esterified fatty acids (e.g. triglycerides and phospholipids). Indices calculated from free fatty acid concentrations reflect SCD activity in adipose tissue, while those from total fatty acids reflect SCD activity in liver (Warensjo et al, Lipids Health Dis 2009, 8:37). Both in rodents and humans, SCD indices are associated with fat mass.
as §1

[9] = Plasma and liver reduced and total glutathione, eight week BSO study; assay type: in vivo, Male C3H mice; conditions: eight weeks BSO, vs control
From the text: as §1, §2

[10] = Body composition (EchoMRI) and dissected fat depots of mice on a high fat diet; assay type: in vivo, Male C3H mice
From the text: as §1, §4

[11] = rats, Ogihara et al; cited from earlier work
[12] = Plasma fatty acid concentrations (free and total); assay type: in vivo, Male C3H mice; conditions: vs control
From the text: as §1

[13] = Metabolic rate by indirect calorimetry (Oxymax); assay type: in vivo, Male C3H mice; conditions: dark and light phases, per unit weight, vs control, P<0.001
From the text: as §3, §4

[14] = dissected mice, vs control, P<0.001

oleic acid to stearic acid ratio (SCD18 index) ([8]; free fatty acids in plasma): lower
ratio of palmitoleic acid to palmitic acid (SCD16 index) ([8]; free fatty acids in plasma): lower
unsaturated/saturated fatty acid ratios (SCD16 and SCD18 activity indices) ([8]; total fatty acid concentrations in plasma): lower
Compound: CCCCS(=N)(=O)CCC(N)C(=O)O (centres unmarked) [BSO, buthionine sulfoximine]
liver fat vacuolation [1]: absent
insulin sensitivity [2]: preserve insulin sensitivity
diet-induced obesity ([2]; mice): reduce
energy expenditure ([2]; mice): increase
locomotor activity ([2]; mice): increase
plasma glucose ([3]; four week study): decreased
plasma glycerol [3]: decreased
plasma high density lipoprotein (HDL) [3]: lower
plasma low density lipoprotein (LDL) [3]: lower
plasma non-esterified fatty acids [3]: lower
plasma total cholesterol [3]: lower
plasma triglycerides ([3]; lower, particularly so): lower
plasma ALT concentrations ([3]; marker of NAFLD): substantially lower
glucose plasma levels ([4]; 6-hour fast): lower
insulin plasma concentrations ([4]; 6-hour fast): lower
HOMA insulin-resistance (IR) index ([4]; from fasting glucose and insulin): significantly lower
concentration of amino acids in the plasma ([5]; difference between BSO and control cohorts): little difference
plasma glutathione concentrations ([5]; four week study, vs control): decrease
total homocysteine (tHcy) plasma concentrations ([5]; vs control): larger concentrations
plasma taurine concentrations ([5]; vs control cohort): substantially lower
plasma tCys concentrations ([5]; vs controls, all measured forms of cysteine): significantly and substantially lower
adipogenesis [6]: increased adipogenesis
intracellular glutathione [6]: decreases
triglycerides in adipocytes [6]: triglyceride accumulation
body weight [7]: reduction in body weight
liver rGSH levels [9]: similar
liver rGSH/tGSH ratio [9]: higher
liver tGSH levels [9]: lower
plasma rGSH/tGSH ratio [9]: similar
plasma reduced glutathione (rGSH) [9]: lower
plasma total glutathione (tGSH) [9]: lower
amount of brown fat mass ([10]; dissected mice, vs control): similar
abdominal fat as a percentage of total body weight [10, 14]: significantly lower
quantity of abdominal fat in grams [10, 14]: significantly lower
lean mass ([10]; echo MRI, difference between BSO and control cohorts): only a relatively small difference
quantity of body fat ([10]; echo MRI, vs control mice, high fat diet): substantially lower
brown fat as a percentage of total fat mass ([10]; vs control, P<0.05): higher
abdominal fat mass as a percentage of total fat mass ([10]; vs control, P=0.055): trend towards decrease
insulin resistance [11]: induces insulin resistance
fatty acid plasma concentrations, a number of C14 to C22 fatty acids ([12]; free and total fatty acids): lower
free palmitic acid plasma concentration [12]: lower
free palmitoleic acid plasma concentration [12]: lower
carbon dioxide production [13]: greater
oxygen consumption [13]: significantly greater
